For assay [1], the system named is A-typeJAK/STAT receptor in HEK293T receiver cells. Kind of assay: Sender-receiver co-culture, SEAP activity (Fig. 6b, S30). The class given is cell-based, human. The following applies: 1.5 × 10^5 receivers + 6 × 10^5 senders; 1 μg/mL dox; 48 h, 37 °C; independent triplicates. From the text: In detail, we observe a 6.6-fold increase in SEAP activity for receiver cells cultured with senders in the presence of dox compared to a co-culture with senders in the absence of the inducer and 9.7-fold increase compared to receiver cells cultured with control 293S GnTi^- cells; a response that is similar to previously engineered paracrine synthetic communication systems[31],[33],[34],[36],[37],[42], ranging from 1.5- to 20-fold in performance. To understand the origin of this activation level, we plated 4.5 × 10^5 sender cells incubated with doxycycline and measured 0.14 μM of secreted SUMO-tagged A’-A’ dipeptide after 48 h, by means of western blotting using an anti-Smt3 antibody (“Methods” and Supplementary Fig. S29). […]
SEAP concentration in cell culture medium was quantified in terms of absorbance increase due to para-nitrophenylphosphate (pNPP), using a commercially available SEAP assay kit (NBP2-25285, Novus Biologicals). […] Absorbance values were measured at 405 nm, at a controlled temperature of 25 °C, for 60 minutes, using a Tecan Spark 10 M plate reader (Tecan). […] Absorbance units are converted to amount of substrate conversion and SEAP activity is calculated from the slope of the time trace and expressed in units per litre (U/L). […]

Assay [2] deals with HEK293S GnTi- TetR sender cells. Kind of assay: Flow cytometry of EmGFP-positive sender cells with and without doxycycline. The note with it: HEK293S GnTi- TetR senders prior to sorting; with dox. The format is cell-based, human. As to the method: HEK293T cells (ATCC® CRL3216™) or human embryonic kidney 293 S lacking N-acetylglucosaminyltransferase I and expressing the Tet repressor protein (HEK293S GnTI^- TetR; obtained from the group of N. Callewaert at the VIB-UGent Center for Medical Biotechnology; nico.callewaert@ugent.vib.be)[75] were plated in 24-well plates (Greiner) and upon reaching 10-20% confluency were transduced with lentivirus harboring the SUMO-tagged A’-A’ peptide with linker I2 (Supplementary Fig. S26) or SUMO-tagged A’-Γ or Γ’-A’ peptide with linker l4 (Supplementary Fig. S31), under the control of the major immediate–early (MIE) human cytomegalovirus (CMV) enhancer and promoter and two TetO operator sequences[69] followed by an internal ribosome entry site (IRES) from encephalomyocarditis virus (EMCV) controlling the expression of an emerald green fluorescent protein (EmGFP). In total, 50–100 μL lentivirus was added to the cells, containing transduction medium (DMEM (41966; Thermo Fisher Scientific) supplemented with 10% (v/v) heat-inactivated FBS (S-FBS-SA-015; Serana)). […] Cells were bulk-sorted or sorted as single cells for EmGFP by fluorescence-activated cell sorting (FACS) in 1:1 conditioned to growth media (conditioned medium being medium that has been in contact with cells for 24 hours and subsequently harvested and filtered with a 0.45-μm syringe filter (Merck)). […]

As to `C[C@H]1c2cccc(O)c2C(=O)C2=C(O)[C@]3(O)C(=O)C(C(N)=O)=C(O)[C@@H](N(C)C)[C@@H]3[C@@H](O)[C@@H]21` [doxycycline], in assay [1], the “fold increase in SEAP activity vs co-culture without inducer” value is recorded as 6.6 fold and the “fold increase in SEAP activity vs receivers with control 293S GnTi- cells” value is reported as 9.7 fold. Further, in assay [2], the “EmGFP positive cells upon doxycycline, prior to sorting” value was determined as 55.0%.
